Test results from the supplement of paper PMC4862054.

Columns and labels:
Details in all cases: 72 h
MCF-10A = test system: MCF-10A
How it was run: (§1)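 Breast cancer cell lines (20 µl suspension) were seeded into 384-well plates holding compound at 5 concentrations in 10-fold steps over a compound-specific 10,000-fold range, then incubated 72 h. Cell death was read first by CellTox Green fluorescence (485/520 nm), then viability by CellTiter-Glo luminescence after 10 min at room temperature. Each plate was normalised to 0.1 % DMSO and a positive kill control. EC50 was fitted from the dose-response curves and censored at the top concentration.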

MDA-MB-468 = test system: MDA-MB-468
How it was run: as §1

CAL-120 = test system: CAL-120
How it was run: as §1

MFM-223 = test system: MFM-223
How it was run: as §1

BT-474 = test system: BT-474
How it was run: as §1

BT-549 = test system: BT-549
How it was run: as §1

SK-BR-3 = test system: SK-BR-3
How it was run: as §1

MDA-MB-453 = test system: MDA-MB-453
How it was run: as §1

Hs578T = test system: Hs578T
How it was run: as §1

DU-4475 = test system: DU-4475
How it was run: as §1

HCC1143 = test system: HCC1143
How it was run: as §1

MDA-MB-436 = test system: MDA-MB-436
How it was run: as §1

CAL-85-1 = test system: CAL-85-1
How it was run: as §1

HCC1937 = test system: HCC1937
How it was run: as §1

MDA-MB-231 = test system: MDA-MB-231
How it was run: as §1

CAL-148 = test system: CAL-148
How it was run: as §1

HDQ-P1 = test system: HDQ-P1
How it was run: as §1

CAL-51 = test system: CAL-51
How it was run: as §1

| Structure (SMILES) | EC50, CellTiter-Glo (MCF-10A) | EC50, CellTiter-Glo (MDA-MB-468) | EC50, CellTiter-Glo (CAL-120) | EC50, CellTiter-Glo (MFM-223) | EC50, CellTiter-Glo (BT-474) | EC50, CellTiter-Glo (BT-549) | EC50, CellTiter-Glo (SK-BR-3) | EC50, CellTiter-Glo (MDA-MB-453) | EC50, CellTiter-Glo (Hs578T) | EC50, CellTiter-Glo (DU-4475) | EC50, CellTiter-Glo (HCC1143) | EC50, CellTiter-Glo (MDA-MB-436) | EC50, CellTiter-Glo (CAL-85-1) | EC50, CellTiter-Glo (HCC1937) | EC50, CellTiter-Glo (MDA-MB-231) | EC50, CellTiter-Glo (CAL-148) | EC50, CellTiter-Glo (HDQ-P1) | EC50, CellTiter-Glo (CAL-51) |
| --- | --- | --- | --- | --- | --- | --- | --- | --- | --- | --- | --- | --- | --- | --- | --- | --- | --- | --- |
| CC(C)(C)Cn1c(N)nc2ccc(-c3[nH]c(C(C)(C)C)nc3-c3ccc(F)cc3)nc21 | 4.59 µM | 6.76 µM | > 10 µM | 3.11 µM | > 10 µM | 3.34 µM | 3.05 µM | 1.91 µM |  |  |  |  |  |  |  |  |  |  |
| CC[C@H](CC#N)OC(=O)N[C@@H](C)c1cccc(NC(=O)Nc2ccc(-c3cnco3)c(OC)c2)c1 [AVN944] | 0.176 µM | 0.0849 µM | 0.376 µM | 0.859 µM | 0.699 µM | 0.139 µM | 0.491 µM |  | 0.532 µM | 0.465 µM | 0.359 µM | 0.176 µM | 0.174 µM | 0.333 µM | 0.287 µM | 0.236 µM | 0.198 µM | 0.196 µM |
| CC(C)C[C@H](NC(=O)[C@H](CCc1ccccc1)NC(=O)CN1CCOCC1)C(=O)N[C@@H](Cc1ccccc1)C(=O)N[C@@H](CC(C)C)C(=O)[C@@]1(C)CO1 [Carfilzomib] | 0.0906 µM | 0.00342 µM | 0.0253 µM | 0.0039 µM | 0.0138 µM | 0.00363 µM | 0.00541 µM | 0.00736 µM | 0.0124 µM | 0.0428 µM | 0.00856 µM | 0.00613 µM | 0.00812 µM | 0.0172 µM | 0.0169 µM | 0.0331 µM | 0.0191 µM | 0.0131 µM |
| Nc1nc(Cl)nc2c1ncn2[C@@H]1O[C@H](CO)[C@@H](O)[C@@H]1F [Clofarabine] | 0.675 µM | 0.627 µM | 0.305 µM |  | 0.196 µM | 0.211 µM | 0.201 µM |  | 3.15 µM | 0.872 µM | 0.32 µM | 0.219 µM | 0.398 µM |  | 0.524 µM | 0.601 µM | 0.482 µM | 0.261 µM |
| CCN(CC)CCOc1ccc(C(=C(Cl)c2ccccc2)c2ccccc2)cc1 [Clomifene] | 9.4 µM |  |  | 6.66 µM | 3.94 µM | 1.98 µM | 6 µM | 2.91 µM | 2.76 µM | 3.46 µM |  |  | 2.39 µM | 2.9 µM | 3.54 µM |  |  |  |
| C[C@@H]1C[C@H]2[C@@H]3CCC4=CC(=O)C=C[C@]4(C)[C@@]3(F)[C@@H](O)C[C@]2(C)[C@@]1(O)C(=O)CO [Dexamethasone] |  |  | 0.00749 µM |  |  |  |  | 0.379 µM |  |  |  |  |  |  |  |  |  |  |
| CCc1cnn2c(NCc3ccc[n+]([O-])c3)cc(N3CCCC[C@H]3CCO)nc12 [Dinaciclib] | 0.0458 µM | 0.0237 µM | 0.0179 µM | 0.0212 µM | 0.0129 µM | 0.0139 µM | 0.00699 µM | 0.0261 µM | 0.016 µM | 0.0206 µM | 0.012 µM | 0.009 µM | 0.00542 µM | 0.0219 µM | 0.0059 µM | 0.0269 µM | 0.0123 µM | 0.0128 µM |
| COc1cc2c(Oc3ccc(NC(=O)C4(C(=O)Nc5ccc(F)cc5)CC4)cc3F)ccnc2cc1OCCCN1CCOCC1 [Foretinib] | 0.854 µM | 0.772 µM | 0.179 µM | 0.111 µM | 0.145 µM |  |  |  |  |  | 0.317 µM | > 1 µM |  |  | 0.6 µM | 0.61 µM |  | 0.49 µM |
| COc1cc(Nc2ncc(F)c(Nc3ccc4c(n3)N(COP(=O)(O)O)C(=O)C(C)(C)O4)n2)cc(OC)c1OC [Fostamatinib] | 0.451 µM |  | 0.405 µM | 0.222 µM | 1.16 µM | 0.599 µM | > 2.5 µM |  | 0.938 µM |  | 0.53 µM |  | 1.56 µM | > 2.5 µM | 0.452 µM |  | 1.66 µM |  |
| CC(C)NC[C@@H](C(=O)N1CCN(c2ncnc3c2[C@H](C)C[C@H]3O)CC1)c1ccc(Cl)cc1 [GDC-0068] | 1.15 µM | 0.656 µM | 0.819 µM | 0.139 µM | > 10 µM | 0.6 µM | 0.814 µM | 0.783 µM | 1.15 µM | 2.07 µM | 1.59 µM | > 10 µM | 6.48 µM | 2.35 µM |  | 0.177 µM | 0.271 µM | 2.78 µM |
| CCCc1cc(C)[nH]c(=O)c1CNC(=O)c1cc(-c2ccnc(N3CCN(C)CC3)c2)cc2c1cnn2C(C)C [GSK343] |  | 2.98 µM |  | 7.41 µM | 4.57 µM | 3.21 µM | 2.75 µM | 2.69 µM |  | 2.38 µM |  | 5.17 µM | 7.16 µM |  | 3.82 µM | 1.86 µM |  |  |
| COc1cc2c(cc1-c1c(C)noc1C)ncc1[nH]c(=O)n([C@H](C)c3ccccn3)c12 [I-BET151] | 0.855 µM | 3.11 µM | 0.574 µM | 0.913 µM | 6.72 µM | 0.673 µM | 1.22 µM | 2.19 µM | 0.678 µM | 4.08 µM | 1.38 µM |  | 0.834 µM | 0.537 µM | 1.31 µM |  | 1.34 µM | 1.38 µM |
| CC(C)n1nc(-c2ccc3oc(N)nc3c2)c2c(N)ncnc21 [INK128] | 0.043 µM | 0.0406 µM | 0.0278 µM | 0.0154 µM | 0.0319 µM | 0.0227 µM | 0.00843 µM | 0.0168 µM | 0.0278 µM | 0.188 µM | 0.0382 µM | 0.0236 µM | 0.0255 µM | 0.173 µM | 0.0374 µM | 0.0322 µM | 0.024 µM | 0.0159 µM |
| NC1(c2ccc(-c3nc4ccn5c(=O)[nH]nc5c4cc3-c3ccccc3)cc2)CCC1 [MK-2206] |  |  |  | 0.436 µM |  | 0.137 µM | 0.28 µM | 0.472 µM | > 1 µM | > 1 µM |  |  |  |  |  | 0.279 µM |  |  |
| N[C@@H](Cc1ccc(N(CCCl)CCCl)cc1)C(=O)O [Melphalan] | 0.424 µM | 0.203 µM | 1.22 µM | 0.31 µM | 0.313 µM | 0.758 µM | 0.247 µM | 0.213 µM | 0.518 µM | 0.322 µM | 0.739 µM | 0.501 µM | 0.444 µM | 0.235 µM | 0.237 µM | 0.268 µM | 0.297 µM | 0.182 µM |
| CO[C@H](C(=O)[C@@H](O)[C@@H](C)O)[C@@H]1Cc2cc3cc(O[C@H]4C[C@@H](O[C@@H]5C[C@@H](O)[C@H](O)[C@@H](C)O5)[C@H](O)[C@@H](C)O4)c(C)c(O)c3c(O)c2C(=O)[C@H]1O[C@H]1C[C@@H](O[C@@H]2C[C@@H](O)[C@@H](O[C@@H]3C[C@](C)(O)[C@H](O)[C@@H](C)O3)[C@@H](C)O2)[C@H](O)[C@@H](C)O1 [Plicamycin] | 4.12 µM | 2.51 µM | 6.76 µM | 7.03 µM | 2.44 µM | 2.34 µM | 4.53 µM | 5.31 µM | 4.22 µM | 3.22 µM | 3.91 µM | 6.15 µM | 4.27 µM | 4.19 µM | 3.02 µM | 4 µM | 5.65 µM | 0.24 µM |
| CO[C@H]1C[C@@H]2CC[C@@H](C)[C@@](O)(O2)C(=O)C(=O)N2CCCC[C@H]2C(=O)O[C@H]([C@H](C)C[C@@H]2CC[C@@H](O)[C@H](OC)C2)CC(=O)[C@H](C)/C=C(\C)[C@@H](O)[C@@H](OC)C(=O)[C@H](C)C[C@H](C)/C=C/C=C/C=C/1C [Sirolimus] |  | 0.00065 µM | 0.0034 µM | 0.00387 µM | 0.0034 µM | 0.00185 µM | 0.00412 µM | 0.00484 µM | 0.00124 µM | 0.0161 µM | 0.00309 µM | 0.00296 µM | 0.00095 µM | 0.0064 µM |  | 0.0036 µM | 0.00792 µM | 0.00233 µM |
| CN1CCN(c2nc(C3=C(c4c[nH]c5ccccc45)C(=O)NC3=O)c3ccccc3n2)CC1 [Sotrastaurin] |  |  |  |  |  |  | 1.46 µM |  |  | 6.79 µM |  |  |  |  |  |  | > 10 µM |  |
| CC/C(=C(\c1ccccc1)c1ccc(OCCN(C)C)cc1)c1ccccc1 [Tamoxifen] |  |  | > 10 µM | 3.37 µM |  |  | > 10 µM | 2.56 µM |  |  |  |  |  | > 10 µM |  |  |  | 0.233 µM |
| CC[C@@H]1C(=O)N(C)c2cnc(Nc3ccc(C(=O)N[C@H]4CC[C@H](N5CCN(CC6CC6)CC5)CC4)cc3OC)nc2N1C(C)C [Volasertib] | 0.0332 µM | 0.00698 µM | 0.0466 µM | 0.00462 µM | 0.00702 µM | 0.0204 µM | 0.00882 µM | 0.0007 µM | 0.0769 µM | 0.0255 µM | 0.0225 µM | 0.00359 µM | 0.00851 µM | 0.0823 µM | 0.00975 µM | 0.00807 µM | 0.0531 µM | 0.0169 µM |
